Results on 1 cell line are retold here after the supplement of paper PMC10307832.

Common to all, as to test: relative viability (nuclei count vs DMSO), 5 days (fraction); higher = more cells survive
Compound in the assay “AT-7519 + Pictilisib”: O=C(NC1CCNCC1)c1n[nH]cc1NC(=O)c1c(Cl)cccc1Cl [AT-7519] + CS(=O)(=O)N1CCN(Cc2cc3nc(-c4cccc5[nH]ncc45)nc(N4CCOCC4)c3s2)CC1 [Pictilisib] (partner 1 µM)
The method, boiled down:
(§1)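 Values are medians from duplicate plates. Each reflects relative viability, defined as the nuclei count of treated wells over that of vehicle wells. Lung cancer cell lines in 1536-well plates were pin-tool dosed one day after seeding with one drug alone or with a fixed anchor-drug dose plus five library-drug doses (not always all listed) in √10 steps, then fixed, stained and imaged at 4× after 5 days.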

Compound in the assay “AT-7519 + Navitoclax”: O=C(NC1CCNCC1)c1n[nH]cc1NC(=O)c1c(Cl)cccc1Cl [AT-7519] + CC1(C)CCC(c2ccc(Cl)cc2)=C(CN2CCN(c3ccc(C(=O)NS(=O)(=O)c4ccc(N[C@H](CCN5CCOCC5)CSc5ccccc5)c(S(=O)(=O)C(F)(F)F)c4)cc3)CC2)C1 [Navitoclax] (partner 0.5 µM)
The essentials: as §1

Compound in the assay “AT-7519 + Pemetrexed”: O=C(NC1CCNCC1)c1n[nH]cc1NC(=O)c1c(Cl)cccc1Cl [AT-7519] + Nc1nc2[nH]cc(CCc3ccc(C(=O)N[C@@H](CCC(=O)O)C(=O)O)cc3)c2c(=O)[nH]1 [Pemetrexed] (partner 0.2 µM)
The method, boiled down:
as §1

Compound in assay [1]: C1=CC2=C(C=C(C(=C2N=C1)O)N=NC3=CC4=C(C=C3)C=C(C=C4)S(=O)(=O)O)S(=O)(=O)O + CS(=O)(=O)CCNCc1ccc(-c2ccc3ncnc(Nc4ccc(OCc5cccc(F)c5)c(Cl)c4)c3c2)o1 [Lapatinib] (partner 2 µM)
The method, boiled down:
as §1

For the cell line UMC-11, the relative viability with AT-7519 + Pictilisib (first compound 0.01 µM) was 0.787; with AT-7519 + Pictilisib (first compound 0.03162 µM) it was 0.814; with AT-7519 + Pictilisib (first compound 0.3162 µM), 0.417; in the assay with AT-7519 + Pictilisib (first compound 1 µM), 0.249; with AT-7519 + Navitoclax (first compound 0.01 µM), 0.291; with AT-7519 + Navitoclax (first compound 0.03162 µM) it was 0.306. Moreover, the relative viability with AT-7519 + Navitoclax (first compound 0.3162 µM) was 0.222; in the assay with AT-7519 + Navitoclax (first compound 1 µM), 0.134; with AT-7519 + Pemetrexed (first compound 0.01 µM), 0.807; with AT-7519 + Pemetrexed (first compound 0.03162 µM), 0.801; with AT-7519 + Pemetrexed (first compound 0.3162 µM) it was 0.586; in the assay with AT-7519 + Pemetrexed (first compound 1 µM), 0.331. Further, the relative viability turned out to be 1.07 in assay [1] (first compound 0.08 µM); 0.969 in assay [1] (first compound 0.253 µM); 0.889 in assay [1] (first compound 0.8 µM); 1.02 in assay [1] (first compound 2.53 µM); 0.716 in assay [1] (first compound 8 µM).
